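Where inhibition never reached the appropriate level, the endpoint shown equals the highest concentration tested. Otherwise, values were interpolated linearly from a five-concentration, 48-hour dose response in 96-well plates. GI50: concentration for 50% inhibition of growth. At the TGI there is no net growth.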
Assays:
Experiment in all cases: growth of human tumour cells (NCI), 48 h
[1] = tested on: 786-0 renal
[2] = tested on: A549 NSCLC
[3] = tested on: BT-549 breast
[4] = tested on: CAKI-1 renal
[5] = tested on: COLO 205 colon
[6] = tested on: EKVX NSCLC
[7] = tested on: HCT-116 colon
[8] = tested on: HL-60(TB) leukemia
[9] = tested on: HOP-62 NSCLC
[10] = tested on: HOP-92 NSCLC
[11] = tested on: HT29 colon
[12] = tested on: IGROV1 ovarian
[13] = tested on: K-562 leukemia
[14] = tested on: KM12 colon
[15] = tested on: LOX IMVI melanoma
[16] = tested on: M14 melanoma
[17] = tested on: MALME-3M melanoma
[18] = tested on: MDA-MB-231 breast
[19] = tested on: MDA-MB-435
[20] = tested on: MOLT-4 leukemia
[21] = tested on: NCI-H23 lung
[22] = tested on: NCI-H460 lung
[23] = tested on: NCI-H522 lung
[24] = tested on: NCI/ADR-RES ovarian
[25] = tested on: OVCAR-4 ovarian
[26] = tested on: OVCAR-8 ovarian
[27] = tested on: PC-3 prostate
[28] = tested on: RPMI-8226 leukemia
[29] = tested on: RXF 393 renal
[30] = tested on: SF-268 CNS
[31] = tested on: SF-295 CNS
[32] = tested on: SK-MEL-2 melanoma
[33] = tested on: SK-MEL-28 melanoma
[34] = tested on: SK-MEL-5 melanoma
[35] = tested on: SK-OV-3 ovarian
[36] = tested on: SN12C renal
[37] = tested on: SNB-19 CNS
[38] = tested on: SNB-75 CNS
[39] = tested on: SR leukemia
[40] = tested on: SW-620 colon
[41] = tested on: T-47D breast
[42] = tested on: TK-10 renal
[43] = tested on: U251 CNS
[44] = tested on: UACC-257 melanoma
[45] = tested on: UACC-62 melanoma
[46] = tested on: UO-31 renal
[47] = tested on: A498 renal
[48] = tested on: ACHN renal
[49] = tested on: CCRF-CEM leukemia
[50] = tested on: DU-145 prostate
[51] = tested on: HCC-2998 colon
[52] = tested on: HS 578T breast
[53] = tested on: MCF7 breast
[54] = tested on: NCI-H226 lung
[55] = tested on: OVCAR-5 ovarian
[56] = tested on: SF-539 CNS

Compound: COc1cc2c3c(n(CCCN(CCCN(CCCn4c5c(c6ccccc6c4=O)C(=O)c4ccccc4-5)C(=O)OC(C)(C)C)C(=O)OC(C)(C)C)c(=O)c2cc1OC)-c1cc2c(cc1C3=O)OCO2
- GI50 [1]: > 100 µM
- TGI [1]: > 100 µM
- GI50 [2]: > 100 µM
- TGI [2]: > 100 µM
- GI50 [3]: 34.7 µM
- TGI [3]: > 100 µM
- GI50 [4]: 9.85 µM
- TGI [4]: > 100 µM
- GI50 [5]: > 100 µM
- TGI [5]: > 100 µM
- GI50 [6]: 11.8 µM
- TGI [6]: 34 µM
- GI50 [7]: > 100 µM
- TGI [7]: > 100 µM
- GI50 [8]: > 100 µM
- TGI [8]: > 100 µM
- GI50 [9]: > 100 µM
- TGI [9]: > 100 µM
- GI50 [10]: > 100 µM
- TGI [10]: > 100 µM
- GI50 [11]: > 100 µM
- TGI [11]: > 100 µM
- GI50 [12]: > 100 µM
- TGI [12]: > 100 µM
- GI50 [13]: > 100 µM
- TGI [13]: > 100 µM
- GI50 [14]: > 100 µM
- TGI [14]: > 100 µM
- GI50 [15]: 26.5 µM
- TGI [15]: > 100 µM
- GI50 [16]: > 100 µM
- TGI [16]: > 100 µM
- GI50 [17]: > 100 µM
- TGI [17]: > 100 µM
- GI50 [18]: 28.5 µM
- TGI [18]: > 100 µM
- GI50 [19]: > 100 µM
- TGI [19]: > 100 µM
- GI50 [20]: > 100 µM
- TGI [20]: > 100 µM
- GI50 [21]: > 100 µM
- TGI [21]: > 100 µM
- GI50 [22]: 21.5 µM
- TGI [22]: > 100 µM
- GI50 [23]: > 100 µM
- TGI [23]: > 100 µM
- GI50 [24]: > 100 µM
- TGI [24]: > 100 µM
- GI50 [25]: > 100 µM
- TGI [25]: > 100 µM
- GI50 [26]: > 100 µM
- TGI [26]: > 100 µM
- GI50 [27]: > 100 µM
- TGI [27]: > 100 µM
- GI50 [28]: > 100 µM
- TGI [28]: > 100 µM
- GI50 [29]: > 100 µM
- TGI [29]: > 100 µM
- GI50 [30]: > 100 µM
- TGI [30]: > 100 µM
- GI50 [31]: > 100 µM
- TGI [31]: > 100 µM
- GI50 [32]: > 100 µM
- TGI [32]: > 100 µM
- GI50 [33]: > 100 µM
- TGI [33]: > 100 µM
- GI50 [34]: > 100 µM
- TGI [34]: > 100 µM
- GI50 [35]: > 100 µM
- TGI [35]: > 100 µM
- GI50 [36]: > 100 µM
- TGI [36]: > 100 µM
- GI50 [37]: > 100 µM
- TGI [37]: > 100 µM
- GI50 [38]: > 100 µM
- TGI [38]: > 100 µM
- GI50 [39]: 33.6 µM
- TGI [39]: > 100 µM
- GI50 [40]: > 100 µM
- TGI [40]: > 100 µM
- GI50 [41]: > 100 µM
- TGI [41]: > 100 µM
- GI50 [42]: 50.1 µM
- TGI [42]: > 100 µM
- GI50 [43]: > 100 µM
- TGI [43]: > 100 µM
- GI50 [44]: > 100 µM
- TGI [44]: > 100 µM
- GI50 [45]: > 100 µM
- TGI [45]: > 100 µM
- GI50 [46]: > 100 µM
- TGI [46]: > 100 µM

Compound: COc1cc(C2c3cc4c(cc3OC(NNC(N)=O)C2C)OCO4)cc(OC)c1OC (stereo not drawn)
- TGI [1]: > 100 µM
- TGI [47]: 0.0599 µM
- TGI [2]: > 100 µM
- TGI [48]: > 62.2 µM
- TGI [3]: > 100 µM
- TGI [4]: > 100 µM
- TGI [49]: 0.507 µM
- TGI [5]: 0.613 µM
- TGI [50]: > 100 µM
- TGI [6]: 99.7 µM
- TGI [51]: > 27.2 µM
- TGI [7]: > 36.5 µM
- TGI [10]: 8.18 µM
- TGI [52]: > 64.9 µM
- TGI [11]: > 100 µM
- TGI [12]: > 100 µM
- TGI [13]: 2.82 µM
- TGI [14]: > 100 µM
- TGI [15]: > 100 µM
- TGI [16]: > 44.9 µM
- TGI [17]: > 100 µM
- TGI [53]: > 53.8 µM
- TGI [18]: 7.25 µM
- TGI [20]: > 100 µM
- TGI [54]: 3.7 µM
- TGI [21]: > 100 µM
- TGI [22]: > 89.8 µM
- TGI [23]: 0.344 µM
- TGI [24]: > 100 µM
- TGI [25]: > 100 µM
- TGI [55]: > 100 µM
- TGI [26]: > 100 µM
- TGI [27]: > 100 µM
- TGI [28]: > 58.1 µM
- TGI [29]: > 100 µM
- TGI [30]: > 100 µM
- TGI [31]: 0.425 µM
- TGI [56]: 0.165 µM
- TGI [32]: > 100 µM
- TGI [33]: > 100 µM
- TGI [34]: 22.8 µM
- TGI [35]: > 100 µM
- TGI [36]: > 100 µM
- TGI [37]: > 100 µM
- TGI [38]: > 87.9 µM
- TGI [40]: > 100 µM
- TGI [41]: > 100 µM
- TGI [42]: > 100 µM
- TGI [44]: > 100 µM
- TGI [45]: > 100 µM
- TGI [46]: > 72.6 µM

From PubChem BioAssay (NCI)
